Measurements as given in patent US9561228B2 (Celgene Avilomics Research, Inc., priority 2013, dated 2017).

System: HCT116 cells (colorectal carcinoma)
Experiment: Inhibition of cancer cell proliferation, HCT116 (CellTiterGlo, 72 hours)
Format: cell-based
Settings: Homo sapiens, HCT-116
How it was run: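 3000 cells per well exposed to 3-fold serial compound dilutions from 5,000 nM (two-fold solution, stock level) for 72 hours at 37° C. CellTiterGlo luminescence converted to cell number via a standard curve; percent inhibition vs untreated wells, GI50 by curve fit.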

SMILES	GI50 [nM]
C=CC(=O)Nc1ccccc1Nc1nc(N[C@H]2CCN(C(=O)CO)C2)ncc1C(F)(F)F [Compound I-57, (S)—N-(2-((2-((1-(2-Hydroxyacetyl)pyrrolidin-3-yl)amino)-5-(trifluoromethyl)pyrimidin-4-yl)amino)phenyl)acrylamide]	101 to 500
C=CC(=O)Nc1ccccc1Nc1nc(N[C@H]2CCN(S(C)(=O)=O)C2)ncc1C(F)(F)F [Compound I-58, (S)—N-(2-((2-((1-(Methylsulfonyl)pyrrolidin-3-yl)amino)-5-(trifluoromethyl)pyrimidin-4-yl)amino)phenyl)acrylamide]	101 to 500
C=CC(=O)Nc1ccccc1Nc1nc(N[C@H]2CCN(C(=O)OC)C2)ncc1C(F)(F)F [Compound I-59, (S)-methyl 3-((4-((2-Acrylamidophenyl)amino)-5-(trifluoromethyl)pyrimidin-2-yl)amino)pyrrolidine-1-carboxylate]	501 to 999
C=CC(=O)Nc1ccccc1Nc1nc(N[C@@H]2CCN(C(C)=O)C2)ncc1C(F)(F)F [Compound I-60, (R)—N-(2-((2-((1-Acetylpyrrolidin-3-yl)amino)-5-(trifluoromethyl)pyrimidin-4-yl)amino)phenyl)acrylamide]	501 to 999
C=CC(=O)Nc1cc(C)ccc1Nc1nc(Nc2cc(OC)ncc2C)ncc1C(F)(F)F [Compound I-90, N-(2-((2-((2-Methoxy-5-methylpyridin-4-yl)amino)-5-(trifluoromethyl)pyrimidin-4-yl)amino)-5-methylphenyl)acrylamide]	501 to 999
C=CC(=O)Nc1ccccc1Nc1nc(N[C@H]2CCCN(C(C)=O)C2)ncc1Cl [Compound I-115, (S)—N-(2-((2-((1-acetylpiperidin-3-yl)amino)-5-chloropyrimidin-4-yl)amino)phenyl)acrylamide]	101 to 500

Next, values leading:

GI50 [nM]	SMILES
101 to 500	C=CC(=O)Nc1ccccc1Nc1nc(N[C@H]2CCN(C(C)=O)C2)ncc1C(F)(F)F [Compound I-56, (S)—N-(2-((2-((1-Acetylpyrrolidin-3-yl)amino)-5-(trifluoromethyl)pyrimidin-4-yl)amino)phenyl)acrylamide]
< 100	C=CC(=O)Nc1cc(OC)ccc1Nc1nc(N[C@H]2CCCN(C(=O)CO)C2)ncc1C(F)(F)F [Compound I-64, (S)—N-(2-((2-((1-(2-Hydroxyacetyl)piperidin-3-yl)amino)-5-(trifluoromethyl)pyrimidin-4-yl)amino)-5-methoxyphenyl)acrylamide]
< 100	C=CC(=O)Nc1cc(OC)ccc1Nc1nc(Nc2cc(OC)nc(N3CCN(CC)CC3)c2)ncc1C(F)(F)F [Compound I-88, N-(2-((2-((2-(4-Ethylpiperazin-1-yl)-6-methoxypyridin-4-yl)amino)-5-(trifluoromethyl)pyrimidin-4-yl)amino)-5-methoxyphenyl)acrylamide]
< 100	C=CC(=O)Nc1cc(C)ccc1Nc1nc(Nc2cc(OC)nc(N3CCN(CC)CC3)c2)ncc1C(F)(F)F [Compound I-89, N-(2-((2-((2-(4-Ethylpiperazin-1-yl)-6-methoxypyridin-4-yl)amino)-5-(trifluoromethyl)pyrimidin-4-yl)amino)-5-methylphenyl)acrylamide]
< 100	C=CC(=O)Nc1cc(OC)ccc1Nc1nc(Nc2cc(OC)nc(N3CCN(C(C)=O)CC3)c2)ncc1C(F)(F)F [Compound I-91, N-(2-((2-((2-(4-Acetylpiperazin-1-yl)-6-methoxypyridin-4-yl)amino)-5-(trifluoromethyl)pyrimidin-4-yl)amino)-5-methoxyphenyl)acrylamide]
< 100	C=CC(=O)Nc1cc(C)ccc1Nc1nc(Nc2cc(OC)nc(N3CCOCC3)c2)ncc1C(F)(F)F [Compound I-94, N-(2-((2-((2-Methoxy-6-morpholinopyridin-4-yl)amino)-5-(trifluoromethyl)pyrimidin-4-yl)amino)-5-methylphenyl)acrylamide]
< 100	C=CC(=O)Nc1ccccc1Nc1nc(Nc2cc(OC)nc(OC)c2)ncc1C(F)(F)F [Compound I-95, N-(2-((2-((2,6-Dimethoxypyridin-4-yl)amino)-5-(trifluoromethyl)pyrimidin-4-yl)amino)phenyl)acrylamide]
